Legend:
NHE3 [1] = target: T1, NHE3 (Homo sapiens, UniProt P48764); assay: Cell-based assay of NHE-3 activity (persistent inhibition), human; conditions: human Persistence, 60 min incubation then washout
T1 construct: expressed in transfected cells
T1 sequence (P48764 26-834): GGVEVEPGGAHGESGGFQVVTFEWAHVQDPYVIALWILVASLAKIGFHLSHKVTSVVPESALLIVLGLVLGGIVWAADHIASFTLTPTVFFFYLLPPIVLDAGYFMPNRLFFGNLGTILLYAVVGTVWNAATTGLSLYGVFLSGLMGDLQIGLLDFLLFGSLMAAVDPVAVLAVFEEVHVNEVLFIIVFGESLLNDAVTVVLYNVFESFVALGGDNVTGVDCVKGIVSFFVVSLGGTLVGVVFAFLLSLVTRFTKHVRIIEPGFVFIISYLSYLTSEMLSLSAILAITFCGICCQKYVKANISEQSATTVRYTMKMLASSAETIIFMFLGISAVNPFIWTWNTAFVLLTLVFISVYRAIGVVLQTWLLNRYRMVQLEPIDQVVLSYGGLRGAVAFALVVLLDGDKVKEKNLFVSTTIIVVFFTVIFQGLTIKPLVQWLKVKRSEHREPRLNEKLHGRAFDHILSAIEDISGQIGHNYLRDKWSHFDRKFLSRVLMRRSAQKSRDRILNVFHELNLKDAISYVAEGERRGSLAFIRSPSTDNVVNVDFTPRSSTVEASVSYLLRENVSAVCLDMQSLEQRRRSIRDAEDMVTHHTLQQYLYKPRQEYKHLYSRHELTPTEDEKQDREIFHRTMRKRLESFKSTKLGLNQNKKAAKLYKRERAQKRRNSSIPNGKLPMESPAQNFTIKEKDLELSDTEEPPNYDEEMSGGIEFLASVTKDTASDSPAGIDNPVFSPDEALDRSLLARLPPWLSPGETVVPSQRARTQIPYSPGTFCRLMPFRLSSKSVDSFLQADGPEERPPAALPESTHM
T1 sequence (Q99653 2-195 partner limits assumed): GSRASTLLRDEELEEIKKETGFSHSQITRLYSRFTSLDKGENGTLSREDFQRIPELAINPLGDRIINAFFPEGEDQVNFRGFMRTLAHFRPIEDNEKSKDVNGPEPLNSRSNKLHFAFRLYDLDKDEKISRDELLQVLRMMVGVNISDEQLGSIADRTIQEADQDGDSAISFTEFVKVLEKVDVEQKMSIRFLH
Summary of the method: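 Persistent inhibition: compound (0-30 μM, 60 min, RT, NaCl-HEPES pH 7.4) removed before assay. Human NHE3/NHERF2 PS120 cells were then BCECF-loaded during NH4Cl pulse (30 min, 37 °C), acidified in Na+-free buffer, and Na+ added 10 min after washout; antiport measured as initial fluorescence-ratio change per minute.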

NHE3 [2] = target: T1, NHE3; assay: Cell-based assay of NHE-3 activity (pre-incubation inhibition), human; conditions: human Preincubation; for pIC50 / IC50: 0-30 μM test compound
Summary of the method: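 Activity read as initial rate of BCECF fluorescence ratio change per minute (ex 439/505, em 538 nm) following NH4Cl prepulse acid loading. Compound (0–30 μM) present during 10 min Na+-free acidification at room temperature; cells were PS120 fibroblasts stably co-expressing human NHE3 and NHERF2.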

Row | Structure (SMILES) | % inhibition (NHE3 [1]) | pIC50 (NHE3 [1]) | % inhibition (NHE3 [2]) | pIC50 (NHE3 [2]) | IC50 (NHE3 [1]) | IC50 (NHE3 [2])
1 | O=C(NCCCCNC(=O)NCCOCCOCCNS(=O)(=O)c1ccc(O[C@H]2c3cc(Cl)cc(Cl)c3C[C@@H]2N2CC3CCC2C3)cc1)NCCOCCOCCNS(=O)(=O)c1ccc(O[C@H]2c3cc(Cl)cc(Cl)c3C[C@@H]2N2CC3CCC2C3)cc1 [Example 68] | C (>70%) | C (NHE3 pIC50 > 7) | C (>70%) | C (NHE3 pIC50 > 7) |  | 
2 | O=C(NCCCCNC(=O)NCCOCCOCCNS(=O)(=O)c1ccc(O[C@H]2c3cc(Cl)cc(Cl)c3C[C@@H]2N2CC3CCC2CC3)cc1)NCCOCCOCCNS(=O)(=O)c1ccc(O[C@H]2c3cc(Cl)cc(Cl)c3C[C@@H]2N2CC3CCC2CC3)cc1 [Example 69, 1-[2-(2-[2-[(4-[[(1S,2S)-2-[2-Azabicyclo[2.2.2]octan-2-yl]-4,6-dichloro-2,3-dihydro-1H-inden-1-yl]oxy]benzene)sulfonamido]ethoxy]ethoxy)ethyl]-3-[4-([[2-(2-[2-[(4-[[(1S,2S)-2-[2-azabicyclo[2.2.2]octan-2-yl]-4,6-dichloro-2,3-dihydro-1H-inden-1-yl]oxy]benzene)sulfonamido]ethoxy]ethoxy)ethyl]carbamoyl]amino)butyl]urea] | C (>70%) |  | C (>70%) | C (NHE3 pIC50 > 7) | 100 to 1000 nM | 
3 | O=C(NCCCCNC(=O)NCCOCCOCCNS(=O)(=O)c1ccc(O[C@H]2c3cc(Cl)cc(Cl)c3C[C@@H]2N2C3CCCC2CC3)cc1)NCCOCCOCCNS(=O)(=O)c1ccc(O[C@H]2c3cc(Cl)cc(Cl)c3C[C@@H]2N2C3CCCC2CC3)cc1 [Example 70, 3-[2-(2-[2-[(4-[[(1S,2S)-2-[8-azabicyclo[3.2.1]octan-8-yl]-4,6-dichloro-2,3-dihydro-1H-inden-1-yl]oxy]benzene)sulfonamido]ethoxy]ethoxy)ethyl]-1-[4-([[2-(2-[2-[(4-[[(1S,2S)-2-[8-azabicyclo[3.2.1]octan-8-yl]-4,6-dichloro-2,3-dihydro-1H-inden-1-yl]oxy]benzene)sulfonamido]ethoxy]ethoxy)ethyl]carbamoyl]amino)butyl]urea] | C (>70%) |  | C (>70%) |  |  | 
4 | O=C(NCCCCNC(=O)NCCOCCOCCNS(=O)(=O)c1ccc(O[C@H]2c3cc(Cl)cc(Cl)c3C[C@@H]2N2C3CCCC2CCC3)cc1)NCCOCCOCCNS(=O)(=O)c1ccc(O[C@H]2c3cc(Cl)cc(Cl)c3C[C@@H]2N2C3CCCC2CCC3)cc1 [Example 71, 1-[2-(2-[2-[(4-[[(1S,2S)-2-[9-Azabicyclo[3.3.1]nonan-9-yl]-4,6-dichloro-2,3-dihydro-1H-inden-1-yl]oxy]benzene)sulfonamido]ethoxy]ethoxy)ethyl]-3-[4-([[2-(2-[2-[(4-[[(1S,2S)-2-[9-azabicyclo[3.3.1]nonan-9-yl]-4,6-dichloro-2,3-dihydro-1H-inden-1-yl]oxy]benzene)sulfonamido]ethoxy]ethoxy)ethyl]carbamoyl]amino)butyl]urea] | B (40-70%) | A (NHE3 pIC50 < 6) | B (40-70%) | A (NHE3 pIC50 < 6) |  | 
5 | Cc1cc(S(=O)(=O)NCCOCCOCCNC(=O)NCCCCNC(=O)NCCOCCOCCNS(=O)(=O)c2ccc(O[C@H]3c4cc(Cl)cc(Cl)c4C[C@@H]3N3CCN(C)CC3)c(C)c2)ccc1O[C@H]1c2cc(Cl)cc(Cl)c2C[C@@H]1N1CCN(C)CC1 [Example 73] | B (40-70%) | A (NHE3 pIC50 < 6) | C (>70%) |  |  | 100 to 1000 nM

The next lines start with the values.

Row | % inhibition (NHE3 [1]) | pIC50 (NHE3 [1]) | % inhibition (NHE3 [2]) | pIC50 (NHE3 [2]) | IC50 (NHE3 [1]) | IC50 (NHE3 [2]) | Structure (SMILES)
6 | A (NHE3 < 40%) | A (NHE3 pIC50 < 6) | A (NHE3 < 40%) | A (NHE3 pIC50 < 6) |  |  | C[C@@H]1CCCCN1[C@H]1Cc2c(Cl)cc(Cl)cc2[C@@H]1Oc1ccc(S(=O)(=O)NCCOCCOCCNC(=O)NCCCCNC(=O)NCCOCCOCCNS(=O)(=O)c2ccc(O[C@H]3c4cc(Cl)cc(Cl)c4C[C@@H]3N3CCCC[C@H]3C)cc2)cc1 [Example 66, 3-[2-(2-[2-[(4-[[(1S,2S)-4,6-Dichloro-2-[(2R)-2-methylpiperidin-1-yl]-2,3-dihydro-1H-inden-1-yl]oxy]benzene)sulfonamido]ethoxy]ethoxy)ethyl]-1-[4-([[2-(2-[2-[(4-[[(1S,2S)-4,6-dichloro-2-[(2R)-2-methylpiperidin-1-yl]-2,3-dihydro-1H-inden-1-yl]oxy]benzene)sulfonamido]ethoxy]ethoxy)ethyl]carbamoyl]amino)butyl]urea]
7 | B (40-70%) |  | C (>70%) |  | 100 to 1000 nM | 100 to 1000 nM | C[C@H]1CCCCN1[C@H]1Cc2c(Cl)cc(Cl)cc2[C@@H]1Oc1ccc(S(=O)(=O)NCCOCCOCCNC(=O)NCCCCNC(=O)NCCOCCOCCNS(=O)(=O)c2ccc(O[C@H]3c4cc(Cl)cc(Cl)c4C[C@@H]3N3CCCC[C@@H]3C)cc2)cc1 [Example 67, 3-[2-(2-[2-[(4-[[(1S,2S)-4,6-Dichloro-2-[(2S)-2-methylpiperidin-1-yl]-2,3-dihydro-1H-inden-1-yl]oxy]benzene)sulfonamido]ethoxy]ethoxy)ethyl]-1-[4-([[2-(2-[2-[(4-[[(1S,2S)-4,6-dichloro-2-[(2S)-2-methylpiperidin-1-yl]-2,3-dihydro-1H-inden-1-yl]oxy]benzene)sulfonamide]ethoxy]ethoxy)ethyl]carbamoyl]amino)butyl]urea]
8 | C (>70%) |  | C (>70%) |  | 100 to 1000 nM |  | CN1CCN([C@H]2Cc3c(Cl)cc(Cl)cc3[C@@H]2Oc2ccc(S(=O)(=O)NCCOCCOCCNC(=O)NCCCCNC(=O)NCCOCCOCCNS(=O)(=O)c3ccc(O[C@H]4c5cc(Cl)cc(Cl)c5C[C@@H]4N4CCN(C)CC4)cc3)cc2)CC1 [Example 72, 3-[2-(2-[2-[(4-[[(1S,2S)-4,6-Dichloro-2-(4-methylpiperazin-1-yl)-2,3-dihydro-1H-inden-1-yl]oxy]benzene)sulfonamido]ethoxy]ethoxy)ethyl]-1-[4-([[2-(2-[2-[(4-[[(1S,2S)-4,6-dichloro-2-(4-methylpiperazin-1-yl)-2,3-dihydro-1H-inden-1-yl]oxy]benzene)sulfonamido]ethoxy]ethoxy)ethyl]carbamoyl]amino)butyl]urea a; bis(trifluoroacetic acid)]
9 | A (NHE3 < 40%) | A (NHE3 pIC50 < 6) | C (>70%) | A (NHE3 pIC50 < 6) |  |  | CC(=O)N1CCN([C@H]2Cc3c(Cl)cc(Cl)cc3[C@@H]2Oc2ccc(S(=O)(=O)NCCOCCOCCNC(=O)NCCCCNC(=O)NCCOCCOCCNS(=O)(=O)c3ccc(O[C@H]4c5cc(Cl)cc(Cl)c5C[C@@H]4N4CCN(C(C)=O)CC4)cc3)cc2)CC1 [Example 74, 3-[2-(2-[2-[(4-[[(1S,2S)-2-(4-Acetylpiperazin-1-yl)-4,6-dichloro-2,3-dihydro-1H-inden-1-yl]oxy]benzene)sulfonamido]ethoxy]ethoxy)ethyl]-1-[4-([[2-(2-[2-[(4-[[(1S,2S)-2-(4-acetylpiperazin-1-yl)-4,6-dichloro-2,3-dihydro-1H-inden-1-yl]oxy]benzene)sulfonamido]ethoxy]ethoxy)ethyl]carbamoyl]amino)butyl]urea]

From US11242337B2, “Compounds useful for treating gastrointestinal tract disorders” (Ardelyx, Inc., priority 2017, dated 2022)
